Measured values taken from patent US9221834B2 (Merck Sharp & Dohme Corp., priority 2010, dated 2015).
Where a name gives a salt, the structure may show the parent alone.

Molecular target: T1, recombinant CETP (rCETP) (Homo sapiens, UniProt P11597)
T1 sequence (P11597 18-493): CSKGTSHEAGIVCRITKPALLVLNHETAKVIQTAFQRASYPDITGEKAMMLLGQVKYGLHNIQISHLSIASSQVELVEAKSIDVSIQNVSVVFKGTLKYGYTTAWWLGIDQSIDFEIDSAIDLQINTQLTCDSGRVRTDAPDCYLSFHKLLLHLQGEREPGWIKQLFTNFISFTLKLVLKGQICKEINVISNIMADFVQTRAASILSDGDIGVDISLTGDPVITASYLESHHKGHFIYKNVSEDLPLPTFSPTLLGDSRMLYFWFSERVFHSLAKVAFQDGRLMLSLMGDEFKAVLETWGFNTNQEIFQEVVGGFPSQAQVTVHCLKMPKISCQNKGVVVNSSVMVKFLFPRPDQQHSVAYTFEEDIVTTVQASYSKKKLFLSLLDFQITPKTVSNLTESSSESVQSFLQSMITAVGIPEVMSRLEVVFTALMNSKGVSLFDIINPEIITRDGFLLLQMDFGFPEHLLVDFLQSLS
Assay: RTA assay using recombinant CETP (2% RTA)
Type: biochemical
Conditions: RTA assay in 2% human serum; read-out: IC50
How it was run: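 Compounds preincubated 1 h at 37 °C with assay cocktail (CETP buffer: 50 mM Tris pH 7.4, 100 mM NaCl, 1 mM EDTA; human HDL acceptor); transfer started with [3H]cholesteryl oleate- or [3H]triolein-labelled LDL, 60 min at 37 °C. LDL PEG-precipitated; supernatant counted by scintillation, blank-corrected; IC50 from 4-parameter sigmoidal fit of % inhibition vs DMSO control.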

Q: With `COc1ccc(CCc2ncc[nH]2)cc1-c1ccc(N2CCC2)nc1CN1C(=O)O[C@H](c2cc(C(F)(F)F)cc(C(F)(F)F)c2)[C@@H]1C` [Example 268] as the molecule, how does the IC50 read?
A: Its IC50 is 91 nM.

Q: Which IC50 does the source give for `COc1ccc(CCc2n(C)cc[n+]2C)cc1-c1ccc(N2CCC2)nc1CN1C(=O)O[C@H](c2cc(C(F)(F)F)cc(C(F)(F)F)c2)[C@@H]1C` [Example 269, 2-(2-{3-[6-azetidin-1-yl-2-({(4S,5R)-5-[3,5-bis(trifluoromethyl)phenyl]-4-methyl-2-oxo-1,3-oxazolidin-3-yl}methyl)pyridin-3-yl]-4-methoxyphenyl}ethyl)-1,3-dimethyl-1H-imidazol-3-ium formate] here?
A: Its IC50 is 175 nM.

Q: With `COc1ccc(CCc2nc[nH]n2)cc1-c1ccc(N2CCC2)nc1CN1C(=O)O[C@H](c2cc(C(F)(F)F)cc(C(F)(F)F)c2)[C@@H]1C` [Example 270, (4S,5R)-3-[(6-azetidin-1-yl-3-{2-methoxy-5-[2-(1H-1,2,4-triazol-3-yl)ethyl]phenyl}pyridin-2-yl)methyl]-5-[3,5-bis(trifluoromethyl)phenyl]-4-methyl-1,3-oxazolidin-2-one] as the molecule, how does the IC50 read?
A: Its IC50 is 7 nM.

Q: For `COc1ccc(CCC(=O)O)cc1-c1ccc(N2CCCCC2)nc1CN1C(=O)O[C@H](c2cc(C(F)(F)F)cc(C(F)(F)F)c2)[C@@H]1C` [Example 271, 3-{3-[2-({(4S,5R)-5-[3,5-bis(trifluoromethyl)phenyl]-4-methyl-2-oxo-1,3-oxazolidin-3-yl}methyl)-6-piperidin-1-ylpyridin-3-yl]-4-methoxyphenyl}propanoic acid], which IC50 is on record?
A: Its IC50 is 96 nM.

Q: For `COc1ccc([C@H]2CC[C@H](C(=O)O)CC2)cc1-c1cnc(N2CCC2)nc1CN1C(=O)O[C@H](c2cccc(C(F)(F)F)c2)[C@@H]1C` [Example 272], which IC50 is on record?
A: The IC50 was 165 nM.

Q: For `COc1ccc(CCC(=O)O)cc1-c1cnc(N2CCC2)nc1CN1C(=O)O[C@H](c2cccc(C(F)(F)F)c2)[C@@H]1C` [Example 273], which IC50 is on record?
A: The IC50 was 2300 nM.

Q: For `COc1ccc(C2C[C@H]2C(=O)O)cc1-c1cnc(N2CCC2)nc1CN1C(=O)O[C@H](c2cccc(C(F)(F)F)c2)[C@@H]1C` (stereo partly shown) [Example 274], which IC50 is on record?
A: Its IC50 is 1620 nM.

Q: For `Cc1cc(C(=O)O)ccc1-c1cccc(-c2cnc(N3CCC3)nc2CN2C(=O)O[C@H](c3cccc(C(F)(F)F)c3)[C@@H]2C)c1` [Example 275], which IC50 is on record?
A: Its IC50 is 605 nM.

Q: Which IC50 does the source give for `Cc1cc(C(=O)O)ccc1-c1cc(-c2cnc(N3CCC3)nc2CN2C(=O)O[C@H](c3cccc(C(F)(F)F)c3)[C@@H]2C)ccc1F` [Example 276] here?
A: The IC50 was 76 nM.

Q: With `COc1cc(F)c(-c2ccc(C(=O)O)cc2C)cc1-c1cnc(N2CCC2)nc1CN1C(=O)O[C@H](c2ccc(F)cc2)[C@@H]1C` [Example 279] as the molecule, how does the IC50 read?
A: The IC50 was 189 nM.

Q: Which IC50 does the source give for `C[C@H]1[C@@H](c2cc(C(F)(F)F)cc(C(F)(F)F)c2)OC(=O)N1Cc1nc(N2CCC2)ncc1-c1cc(CCC(=O)O)ccc1Cl` [Example 280] here?
A: Its IC50 is 23 nM.

Q: For `COc1ccc([C@H]2CC[C@H](C(=O)O)CC2)cc1-c1ccc(N2CC(F)(F)C2)nc1CN1C(=O)O[C@H](c2cc(F)cc(C(F)(F)F)c2)[C@@H]1C` [Example 283, trans-4-{3-[6-(3,3-difluoroazetidin-1-yl)-2-({(4S,5R)-5-[3-fluoro-5-(trifluoromethyl)phenyl]-4-methyl-2-oxo-1,3-oxazolidin-3-yl}methyl)pyridin-3-yl]-4-methoxyphenyl}cyclohexanecarboxylic acid], which IC50 is on record?
A: Its IC50 is 9 nM.

Q: With `COc1ccc(-n2ncc(C(=O)O)c2C(F)(F)F)cc1-c1c(C)cc(N2CCC2)nc1CN1C(=O)O[C@H](c2cc(C(F)(F)F)cc(C(F)(F)F)c2)[C@@H]1C` [Example 285] as the molecule, how does the IC50 read?
A: Its IC50 is 4 nM.

Q: With `COc1c(F)cc(-c2ccc(C(=O)O)cc2C)cc1-c1c(C)cc(N2CCC2)nc1CN1C(=O)O[C@H](c2cc(C(F)(F)F)cc(C(F)(F)F)c2)[C@@H]1C` [Example 287] as the molecule, how does the IC50 read?
A: Its IC50 is 3 nM.

Q: Which IC50 does the source give for `Cc1cc(C(=O)O)ccc1-c1cc(F)cc(-c2ccc(N3CCC3)nc2CN2C(=O)O[C@H](c3cc(C(F)(F)F)cc(C(F)(F)F)c3)[C@@H]2C)c1` [Example 288] here?
A: Its IC50 is 11 nM.

Q: For `COc1ccc(-c2ccc(C(=O)O)cc2C)cc1-c1ccc(N2CCC2)nc1CN1C(=O)O[C@H](c2cc(C(F)(F)F)cc(C(F)(F)F)c2)[C@@H]1C` [Example 289], which IC50 is on record?
A: The IC50 was 7 nM.

Q: With `C[C@H]1[C@@H](c2cc(F)cc(C(F)(F)F)c2)OC(=O)N1Cc1nc(N2CC(F)(F)C2)ncc1-c1cc([C@H]2CC[C@H](C(=O)O)CC2)ccc1Cl` [Example 291] as the molecule, how does the IC50 read?
A: The IC50 was 49 nM.

Q: Which IC50 does the source give for `COc1ccc([C@H]2CC[C@H](C(=O)O)CC2)cc1-c1c(C)cc(N2CCC2)nc1CN1C(=O)O[C@H](c2cc(F)cc(C(F)(F)F)c2)[C@@H]1C` [Example 292] here?
A: Its IC50 is 7 nM.

Q: For `COc1ccc([C@H]2CC[C@H](C(=O)O)CC2)cc1-c1ccc(N2CC(F)(F)C2)nc1CN1C(=O)O[C@H](c2cc(C)cc(C(F)(F)F)c2)[C@@H]1C` [Example 293], which IC50 is on record?
A: The IC50 was 7 nM.

Q: With `COc1ccc([C@H]2CC[C@H](C(=O)O)CC2)cc1-c1ccc(N2CC(F)(F)C2)nc1CN1C(=O)O[C@H](c2cccc(OC(F)(F)F)c2)[C@@H]1C` [Example 294] as the molecule, how does the IC50 read?
A: Its IC50 is 102 nM.

Q: Which IC50 does the source give for `COc1ccc([C@H]2C[C@H](C(=O)O)C2)cc1-c1ccc(N2CC(F)(F)C2)nc1CN1C(=O)O[C@H](c2cccc(OC(F)(F)F)c2)[C@@H]1C` [Example 295] here?
A: The IC50 was 114 nM.

Q: Which IC50 does the source give for `COc1cc(F)c(-c2ccc(C(=O)O)cc2C)cc1-c1ccc(N2CC(F)(F)C2)nc1CN1C(=O)O[C@H](c2cccc(OC(F)(F)F)c2)[C@@H]1C` [Example 296] here?
A: Its IC50 is 8 nM.

Q: Which IC50 does the source give for `COc1ccc(CCC(=O)O)cc1-c1ccc(N2CC(F)(F)C2)nc1CN1C(=O)O[C@H](c2cccc(OC(F)(F)F)c2)[C@@H]1C` [Example 297] here?
A: Its IC50 is 375 nM.

Same assay, conditions: value printed with the example; serum level not stated there; read-out: RTA

Q: Which IC50 does the source give for `COc1ccc(-c2ccc(C(=O)O)cc2C)cc1-c1cnc(N2CCC2)nc1CN1C(=O)O[C@H](c2cc(Cl)cc(Cl)c2)[C@@H]1C` [Example 302] here?
A: Its IC50 is 4.43 nM.

Q: For `COc1cc(F)c(C(C)C)cc1-c1cnc(N2CC(F)C2)nc1CN1C(=O)O[C@H](c2cc(C3CC3)cc(C(F)(F)F)c2)[C@@H]1C` [Example 303, (4S,5R)-5-[3-cyclopropyl-5-(trifluoromethyl)phenyl]-3-({2-(3-fluoroazetidin-1-yl)-5-[4-fluoro-2-methoxy-5-(propan-2-yl)phenyl]pyrimidin-4-yl}methyl)-4-methyl-1,3-oxazolidin-2-one], which IC50 is on record?
A: The IC50 was 98 nM.

System: not given
Assay: not given
Conditions: patients treated with anacetrapib; cited from earlier work

Q: With `COc1cc(F)c(C(C)C)cc1-c1ccc(C(F)(F)F)cc1CN1C(=O)O[C@H](c2cc(C(F)(F)F)cc(C(F)(F)F)c2)[C@@H]1C` [anacetrapib] as the molecule, how does the increase in mortality read?
A: The increase in mortality was “unlikely”.

Same assay, conditions: patients, with baseline statin therapy, compared with just a statin; cited from earlier work

Q: What does the source list for `COc1cc(F)c(C(C)C)cc1-c1ccc(C(F)(F)F)cc1CN1C(=O)O[C@H](c2cc(C(F)(F)F)cc(C(F)(F)F)c2)[C@@H]1C` [anacetrapib]?
A: decrease of LDL-C: 40%; increase of HDL-C: 138%
